≈ marks a conversion by molar mass, not a printed value.
Experiments:
Format in all cases: cell-based
S. aureus = experiment: Broth dilution MIC determination (CLSI) against S. aureus strains; conditions: for MIC S. aureus ATCC29213: ATCC29213, Strain No. MP-12; for MIC S. aureus ATCCBAA-977: ATCCBAA-977, Strain No. MP-17; for MIC S. aureus (MRSA) GISA USA600: GISA USA600, Strain No. MP-619 UNT-120; for MIC S. aureus (MRSA) ST-228 cErm: Strain No. MP-513; for MIC S. aureus (MRSA) USA100: USA100, Strain No. MP-618 UNT-096; for MIC S. aureus (MRSA) USA300: USA300, Strain No. MP-549; for MIC S. aureus (MRSA) ermA phenotype: Strain No. MP-620 UNT-146
From the text: (§1) Minimum inhibitory concentrations (MICs) for macrolides described herein have been determined for unique strains of S. aureus, S. pneumoniae, S. pyogenes, E. faecalis, E. coli, A. baumannii, K. pneumoniae, P. aeruginosa, and H. influenzae, including several multidrug-resistant strains, with a special focus on macrolide resistant mechanisms. Azithromycin and solithromycin were included as control compounds. CLSI standard procedures for broth dilution MIC determination were used. Data for exemplary compounds described herein is shown in Tables M1-M7 and in Tables N1-N4.

S. pneumoniae = experiment: Broth dilution MIC determination (CLSI) against S. pneumoniae strains; conditions: for MIC S. pneumoniae ATCC49619: ATCC49619, Strain No. MP-21
From the text: as §1

S. pyogenes = experiment: Broth dilution MIC determination (CLSI) against S. pyogenes strains; conditions: for MIC S. pyogenes ATCC19615: ATCC19615, Strain No. MP-19; for MIC S. pyogenes mac resistant: Strain No. MP-625 UNT-014
From the text: as §1

E. faecalis = experiment: Broth dilution MIC determination (CLSI) against E. faecalis strains; conditions: for MIC E. faecalis ATCC29212: ATCC29212, Strain No. MP-24; for MIC E. faecalis van resistant: Strain No. UNT-039
From the text: as §1

E. coli = experiment: Broth dilution MIC determination (CLSI) against E. coli strains; conditions: for MIC E. coli ATCC25922: ATCC25922, Strain No. MP-4; for MIC E. coli ATCC25922:tolC: Strain No. MP-9; for MIC E. coli clinical: Strain No. MP541; for MIC E. coli clinical-cErm: Strain No. MP532
From the text: as §1

A. baumannii = experiment: Broth dilution MIC determination (CLSI) against A. baumannii strains; conditions: for MIC A. baumannii ATCC19606: ATCC19606, Strain No. MP-15
From the text: as §1

K. pneumoniae = experiment: Broth dilution MIC determination (CLSI) against K. pneumoniae strains; conditions: for MIC K. pneumoniae ATCC10031: ATCC10031, Strain No. MP-14
From the text: as §1, with “used.” for “used. Data for exemplary compounds described herein is shown in Tables M1-M7 and in Tables N1-N4.”

P. aeruginosa = experiment: Broth dilution MIC determination (CLSI) against P. aeruginosa strains; conditions: for MIC P. aeruginosa ATCC27853: ATCC27853, Strain No. MP-3; for MIC P. aeruginosa PAO1: PAO1, Strain No. MP-7; for MIC P. aeruginosa PAO1:mex: Strain No. MP-8
From the text: as §1

CCC1OC(=O)C(C)C(=O)C(C)C(OC2OC(C)CC(n3cccc3)C2O)C(C)(OC)CC(C)CNC(C)C2N(CCCCn3cc(-c4cccc(N)c4)nn3)C(=O)OC12C (stereo not drawn) [FSM-120362]
MIC S. aureus ATCC29213 (S. aureus): >64 µg/mL
MIC S. aureus ATCCBAA-977 (S. aureus): >64 µg/mL
MIC S. aureus (MRSA) GISA USA600 (S. aureus): >32 µg/mL
MIC S. aureus (MRSA) ST-228 cErm (S. aureus): >64 µg/mL
MIC S. aureus (MRSA) USA100 (S. aureus): >64 µg/mL
MIC S. aureus (MRSA) USA300 (S. aureus): >64 µg/mL
MIC S. aureus (MRSA) ermA phenotype (S. aureus): >32 µg/mL
MIC S. pneumoniae ATCC49619 (S. pneumoniae): 8 µg/mL (≈ 9.41 µM)
MIC S. pneumoniae mefA (S. pneumoniae; Strain No. MP-626 UNT-038): 4 µg/mL (≈ 4.71 µM)
MIC S. pneumoniae mefA (S. pneumoniae; Strain No. MP-627 UNT-039): 8 µg/mL (≈ 9.41 µM)
MIC S. pyogenes ATCC19615 (S. pyogenes): 2 µg/mL (≈ 2.35 µM)
MIC S. pyogenes mac resistant (S. pyogenes): 16 µg/mL (≈ 18.8 µM)
MIC E. faecalis ATCC29212 (E. faecalis): 64 µg/mL (≈ 75.3 µM)
MIC E. faecalis van resistant (E. faecalis): >32 µg/mL
MIC E. coli ATCC25922 (E. coli): >32 µg/mL
MIC E. coli ATCC25922:tolC (E. coli): >64 µg/mL
MIC E. coli clinical (E. coli): >32 µg/mL
MIC E. coli clinical-cErm (E. coli): >32 µg/mL
MIC A. baumannii ATCC19606 (A. baumannii): >64 µg/mL
MIC A. baumannii clinical (A. baumannii; Strain No. MP576): >32 µg/mL
MIC A. baumannii clinical (A. baumannii; Strain No. MP577): >32 µg/mL
MIC K. pneumoniae ATCC10031 (K. pneumoniae): >64 µg/mL
MIC K. pneumoniae clinical (K. pneumoniae; Strain No. MP546): >32 µg/mL
MIC K. pneumoniae clinical (K. pneumoniae; Strain No. MP548): >32 µg/mL
MIC P. aeruginosa ATCC27853 (P. aeruginosa): >32 µg/mL
MIC P. aeruginosa PAO1 (P. aeruginosa): >32 µg/mL
MIC P. aeruginosa PAO1:mex (P. aeruginosa): >64 µg/mL

CCC1OC(=O)C(C)C(=O)C(C)C(OC2OC(C)CC(N(C)CC#N)C2O)C(C)(OC)CC(C)CNC(C)C2N(CCCCn3cc(-c4cccc(N)c4)nn3)C(=O)OC12C (stereo not drawn) [FSM-120371]
MIC (S. aureus; S. aureus (MRSA) GISA USA600, strain MP-619 UNT-120 (Table N2)): >64 µg/mL
MIC (S. aureus; S. aureus (MRSA) ST-228 cErm, strain MP-513 (Table N2)): >64 µg/mL
MIC (S. aureus; S. aureus (MRSA) USA100, strain MP-618 UNT-096 (Table N2)): >64 µg/mL
MIC (S. aureus; S. aureus (MRSA) USA300, strain MP-549 (Table N2)): 64 µg/mL (≈ 75 µM)
MIC (S. aureus; S. aureus (MRSA) ermA phenotype, strain MP-620 UNT-146 (Table N2)): >64 µg/mL
MIC (S. aureus; S. aureus ATCC29213, strain MP-12 (Table N2)): 32 µg/mL (≈ 37.5 µM)
MIC (S. aureus; S. aureus ATCCBAA-977, strain MP-17 (Table N2)): 32 µg/mL (≈ 37.5 µM)
MIC (S. pneumoniae; S. pneumoniae ATCC49619, strain MP-21 (Table N2)): 0.25 µg/mL (≈ 0.293 µM)
MIC (S. pneumoniae; S. pneumoniae mefA, strain MP-626 UNT-038 (Table N2)): 0.25 µg/mL (≈ 0.293 µM)
MIC (S. pneumoniae; S. pneumoniae mefA, strain MP-627 UNT-039 (Table N2)): 0.5 µg/mL (≈ 0.586 µM)
MIC (S. pyogenes; S. pyogenes ATCC19615, strain MP-19 (Table N2)): 0.125 µg/mL (≈ 0.147 µM)
MIC (S. pyogenes; S. pyogenes mac resistant, strain MP-625 UNT-014 (Table N2)): 1 µg/mL (≈ 1.17 µM)
MIC (E. faecalis; E. faecalis ATCC29212, strain MP-24 (Table N2)): 4 µg/mL (≈ 4.69 µM)
MIC (E. faecalis; E. faecalis van resistant, strain UNT-039 (Table N2)): 64 µg/mL (≈ 75 µM)
MIC (E. coli; E. coli ATCC25922, strain MP-4 (Table N2)): 64 µg/mL (≈ 75 µM)
MIC (E. coli; E. coli ATCC25922:tolC, strain MP-9 (Table N2)): 16 µg/mL (≈ 18.8 µM)
MIC (E. coli; E. coli clinical, strain MP541 (Table N2)): 64 µg/mL (≈ 75 µM)
MIC (E. coli; E. coli clinical-cErm, strain MP532 (Table N2)): >64 µg/mL
MIC (A. baumannii; A. baumannii ATCC19606, strain MP-15 (Table N2)): 32 µg/mL (≈ 37.5 µM)
MIC (A. baumannii; A. baumannii clinical, strain MP576 (Table N2)): >64 µg/mL
MIC (A. baumannii; A. baumannii clinical, strain MP577 (Table N2)): >64 µg/mL
MIC (K. pneumoniae; K pneumomae ATCC10031, strain MP-14 (Table N2)): 8 µg/mL (≈ 9.38 µM)
MIC (K. pneumoniae; K. pneumoniae clinical, strain MP546 (Table N2)): >64 µg/mL
MIC (K. pneumoniae; K. pneumoniae clinical, strain MP548 (Table N2)): >64 µg/mL
MIC (P. aeruginosa; P. aeruginosa ATCC27853, strain MP-3 (Table N2)): >64 µg/mL
MIC (P. aeruginosa; P. aeruginosa PAO1, strain MP-7 (Table N2)): >64 µg/mL
MIC (P. aeruginosa; P. aeruginosa PAO1:mex, strain MP-8 (Table N2)): 32 µg/mL (≈ 37.5 µM)

C=CCOCC1CC(N(C)C)C(O)C(OC2C(C)C(=O)C(C)C(=O)OC(CC)C3(C)OC(=O)N(CCCCn4cc(-c5cccc(N)c5)nn4)C3C(C)NCC(C)CC2(C)OC)O1 (stereo not drawn) [FSM-120383]
MIC S. aureus ATCC29213 (S. aureus): >64 µg/mL
MIC S. aureus ATCCBAA-977 (S. aureus): 64 µg/mL (≈ 72.4 µM)
MIC S. aureus (MRSA) GISA USA600 (S. aureus): >64 µg/mL
MIC S. aureus (MRSA) ST-228 cErm (S. aureus): >64 µg/mL
MIC S. aureus (MRSA) USA100 (S. aureus): >64 µg/mL
MIC S. aureus (MRSA) USA300 (S. aureus): >64 µg/mL
MIC S. aureus (MRSA) ermA phenotype (S. aureus): >64 µg/mL
MIC S. pneumoniae ATCC49619 (S. pneumoniae): 0.5 µg/mL (≈ 0.566 µM)
MIC S. pneumoniae mefA (S. pneumoniae; Strain No. MP-626 UNT-038): 0.5 µg/mL (≈ 0.566 µM)
MIC S. pneumoniae mefA (S. pneumoniae; Strain No. MP-627 UNT-039): 0.5 µg/mL (≈ 0.566 µM)
MIC S. pyogenes ATCC19615 (S. pyogenes): 0.25 µg/mL (≈ 0.283 µM)
MIC S. pyogenes mac resistant (S. pyogenes): 1 µg/mL (≈ 1.13 µM)
MIC E. faecalis ATCC29212 (E. faecalis): 8 µg/mL (≈ 9.05 µM)
MIC E. faecalis van resistant (E. faecalis): >64 µg/mL
MIC E. coli ATCC25922 (E. coli): 32 µg/mL (≈ 36.2 µM)
MIC E. coli ATCC25922:tolC (E. coli): 4 µg/mL (≈ 4.52 µM)
MIC E. coli clinical (E. coli): 32 µg/mL (≈ 36.2 µM)
MIC E. coli clinical-cErm (E. coli): >64 µg/mL
MIC A. baumannii ATCC19606 (A. baumannii): 32 µg/mL (≈ 36.2 µM)
MIC A. baumannii clinical (A. baumannii; Strain No. MP576): >64 µg/mL
MIC A. baumannii clinical (A. baumannii; Strain No. MP577): 64 µg/mL (≈ 72.4 µM)
MIC K. pneumoniae ATCC10031 (K. pneumoniae): 8 µg/mL (≈ 9.05 µM)
MIC K. pneumoniae clinical (K. pneumoniae; Strain No. MP546): >64 µg/mL
MIC K. pneumoniae clinical (K. pneumoniae; Strain No. MP548): >64 µg/mL
MIC P. aeruginosa ATCC27853 (P. aeruginosa): 32 µg/mL (≈ 36.2 µM)
MIC P. aeruginosa PAO1 (P. aeruginosa): 64 µg/mL (≈ 72.4 µM)
MIC P. aeruginosa PAO1:mex (P. aeruginosa): 8 µg/mL (≈ 9.05 µM)
